# Source: US11110149B2, “Method for predicting and monitoring the efficacy of low-dose IL-2 and hydroxychloroquine therapy in autoimmune diseases and its long-term use in autoimmune-related conditions” (KSL BIOMEDICAL INC., priority 2019, dated 2021)
# How the values were obtained:
# lupus patients = settings: systematic review, high level of evidence; cited from earlier work
# Sjögren patients = settings: 120 Sjögren patients, vs placebo, after 6 months of therapy; cited from earlier work
# SLE and/or pSS = assay: Double-blinded trial of IL-2 plus HCZ regimen: tolerability; format: in vivo, human; settings: 1 million IU IL-2 SC every other day and HCZ 200 mg Bid PO every day
compound,measurement,setting,value
CCN(CCO)CCCC(C)Nc1ccnc2cc(Cl)ccc12 (stereo not shown) [hydroxychloroquine],Decrease of mortality rates in lupus patients,lupus patients,at least 50%
same,Lupus flares,lupus patients,decreases lupus flares
same,"Primary symptoms of dryness, pain, or fatigue",Sjögren patients,no significant improvement
same,Tolerability of regimen,SLE and/or pSS,well tolerated
